Results: patent publication US6028061A, “Angiogenesis inhibitors and use thereof” (Children's Medical Center Corp, priority 1998, dated 2000)
Entries after “also recorded” stand apart in the source; their conditions may differ.

Assays:
[1] = test system: FGF-2 mitogenic activity in F32 cells; assay: FGF-2 mitogenicity assay in F32 cells, absence of added heparin ([3H]-thymidine incorporation; stimulation of FGF-2 activity); assay type: cell-based; settings: for [3H]-thymidine incorporation, controls alone: F32 cells, heparin (alone) and FGF-2 (alone) controls
Method: (§1) Assay of FGF-2 mitogenic activity, FGF-2 mitogenicity assays were performed in F32 cells that express FGF-receptor 1 (FGF-R1)(16) but no detectable levels of heparan sulfate proteoglycans (17). […] Tested glycosaminoglycans were added in concentrations ranging from 1-5000 ng/ml. Proliferation was measured after 40 h incubation in 200 μl medium (RPM1 1640, 10% heat-inactivated newborn calf serum) in the presence of a 1 μCi/well pulse of [^3 H]-thymidine during the final 6 h of the incubation. Radioactivity incorporated into DNA was quantified by scintillation counting, MTT, 3-[4,5-dimethylthiazol-2-yl]-2,5-diphenyl tetrazolium bromide (Thiazole blue), used to determine cell viability, was from Sigma Chemical (St. Louis, Mo.).
(§2) Influence of glycosaminoglycans and their derivatives on FGF-2 mitogenic activity. The direct influence of acharan sulfate and its derivative on FGF-2 mitogenic activity was measured in the absence of added heparin. […] The effect of acharan sulfate on cell viability was assessed by measuring the formation of a chromogen from MTT, a tetrazolium dye that is converted solely by living cells (18). […] Thus, the inhibition of mitogenicity is not due to toxicity leading to reduced cell number.

FGF-2 [2] = assay: Isothermal titration calorimetry of glycosaminoglycan binding to FGF-2; settings: for Kd / n, average number of FGF-2 molecules occupying a single glycosaminoglycan chain (stoichiometry): 50 mM sodium phosphate pH 7.4, 100 mM NaCl, 25° C; for FGF-2 binding (in words): isothermal titration calorimetry
Method: Interaction of glycosaminoglycans and their derivatives with FGF-2. Isothermal titration calorimetry was performed in 50 mM sodium phosphate buffer, pH 7.4, containing 100 mM sodium chloride at 25° C. as previously described (15).
Determination of the FGF-2 binding affinity of glycosaminoglycans and their derivatives. Isothermal titration calorimetry was performed with heparin oligosaccharides, herapin, acharan sulfate and N-sulfoacharan sulfate. The heat of interaction (ΔH) is directly measured in this experiment. From this heat of interaction the Kd, and n (stoichiometry) of interaction can be deduced. The minimum FGF-2 binding site is a tetra- or hexasaccharide. […] The n value is consistent with the molecular weight of each ligand (Table 2).

FGF-2 [3] = settings: cited from earlier work
F32 cells = assay: MTT cell viability assay; assay type: cell-based; settings: 40 h incubation, same concentrations as in the mitogenicity assays
Method: as §1, §2

[4] = test system: FGF-2 mitogenic activity in F32 cells; assay: FGF-2 mitogenicity assay in F32 cells, presence of 10 ng/ml heparin ([3H]-thymidine incorporation; inhibition of heparin-mediated activity); assay type: cell-based; settings: for FGF-2 mitogenicity in the presence of heparin (in words): 10 ng/ml heparin, 150 pM FGF-2, 40 h
Method: as §1, §2

Substance | [3H]-thymidine incorporation, controls alone [1] | Kd (FGF-2 [2]) [nM] | FGF-2 binding (in words) (FGF-2 [2]) | n, average number of FGF-2 molecules occupying a single glycosaminoglycan chain (stoichiometry) (FGF-2 [2]) | FGF-2 mitogenicity in the presence of heparin (in words) [4] | other results
Heparin [reference compound] | ~ 750 cpm | 36 | bind FGF-2 most tightly |  |  | mitogenic activity (literature, in words) (FGF-2 [3]): known to enhance the activity of FGF-2
→4)GlcNpAc(1→4)IdoAp2S(1→ [Acharan sulfate] |  | 4500 | binds very poorly; also recorded: very weak | 13.4 | markedly decreased the mitogenic activity in a concentration dependent manner; also recorded: inhibited FGF-2 mitogenicity in the presence of heparin | cell viability (number of living cells, MTT) (F32 cells): no reduction in the number of living cells; Kd (FGF-2 [2]; listed as acharan sulfate): > 4000 nM; IC50 of inhibition of FGF-2 mitogenicity ([4]; in the presence of 10 ng/ml heparin): ~ 400 ng/ml
→4)GlcNp2S(1→4)IdoAp2S(1→ [N-sulfoacharan sulfate] |  | 90 | bind FGF-2 most tightly; also recorded: tightly bound multiple FGF-2 molecules | 4.4 | no discernible effect on FGF-2 mitogenicity induced by heparin | FGF-2 mitogenic activity (in words) ([1]; absence of added heparin): about the same activity as the syndecan-1 ectodomain; also recorded: minimal mitogenic activity compared with that of heparin; activity relative to heparin, fold less active ([1]; absence of added heparin, on a weight basis): about 150 fold; FGF-2 mitogenicity in the presence of heparin (in words) ([4]; listed as N-sulfoacharan): failed to further stimulate FGF-2 mitogenicity
Low molecular weight heparin [reference compound] |  | 36 |  | 3.6 |  | 
ΔUAp2S(1→[4)GlcNp2S6S(1→4)IdoAp2S(→]m=1-5) [dodecasaccharide, reference compound] |  |  |  | 1.8 |  | 
FGF-2: growth factor, control alone in F32 mitogenicity assay | ~ 750 cpm |  |  |  |  | 
